Measurements from patent US20160340633A1, “PLURIPOTENT STEM CELL EXPANSION AND PASSAGE USING A ROCKING PLATFORM BIOREACTOR” (General Electric Company, priority 2015, published 2016).

Tested on: CT2 human embryonic stem cells
Test: Expansion of slicer-passaged pluripotent stem cell aggregates cultured with or without Y27632 ROCK inhibitor
Type: cell-based
Protocol: In one example, aggregate formation and cell expansion was measured after passage with Accutase™ or with the square grid or hexagon grid slicer. After passaging, CT2 human embryonic stem cells were seeded in 6 well plates in 2 ml mTeSR1 at either 4×10̂5 cells per mL or 1.5×10̂6 cells per mL, with or without 10 uM Y27632 ROCK inhibitor. The plates were maintained on a Boekel Scientific Rocker II 260350 rocker platform in a standard cell culture incubator at 37 degrees C., 5% CO2, with culture conditions of 20 rocks per minute at a 15 degree rock angle. Aggregates formed from the accutased cells after overnight culture. Each day, the spent mTeSR1 was completely removed and replaced with fresh mTeSR1 without Y27632 ROCK inhibitor. On day 4, the aggregates were recovered, dissociated with Accutase™ and enumerated using a Nucleocounter NC200. […]
Aggregates were passed across the slicer in a flow stream consisting of 100 mL to 1 L volumes. […] The cell aggregate concentration used to pass through the slicer was determined to influence the recovery of sliced cell aggregates at high viability. […] It was determined that slicing of cell aggregate concentrations below about 3×10̂6 cells per mL produced higher viability samples with higher recovery than cell concentrations greater than about 3×10̂6 cells per mL. […]

For `C[C@@H](N)[C@H]1CC[C@H](C(=O)Nc2ccncc2)CC1` [Y27632 ROCK inhibitor, Y-27632], the “expansion rates of slicer passaged aggregates cultured with or without Y27632 ROCK inhibitor” value (10 uM at seeding, 4×10^5 or 1.5×10^6 cells per mL, 6 well plates, rocking, counted day 4, square or hexagon grid slicer) was “similar” and the “requirement of Y27632 ROCK inhibitor for expansion of sliced pluripotent stem cell aggregates” value (sliced aggregates in mTeSR1, optionally 1 to 10 uM, unlike enzymatically passaged aggregates) was “not required”.
